From patent publication US20110287026A1, “SIRT4 AND USES THEREOF” (President and Fellows of Harvard College, priority 2008, published 2011)

Columns and labels:
Format in all cases: cell-based, mouse
[1] = system: fatty acid oxidation in primary hepatocytes; assay: Oxidation of [3H]palmitate in primary hepatocytes
Protocol: Primary hepatocytes were isolated using a two-step perfusion protocol, based on previous methods (Lin et al., (2004) Cell 119, 121-135.). Briefly, livers were perfused first with Hanks balanced salt solution (HBSS, pH 7.4), containing glucose (1.0 g/l), EDTA (0.2 g/l), HCO3 (2.1 g/l) and KCl (0.4 g/l) for 5 minutes. Next, livers were perfused for 15 min with a collagenase buffer (pH 7.4, Invitrogen). After perfusion, livers were dissected, minced, filtered, and hepatocytes purified using Percoll (Sigma) and plated (500,000 cells per well) on collagen coated 6 well plates (BD Biosciences) in DMEM (4.5 g/l glucose) containing 10% FBS, 2 mM pyruvate, 2% Pen/strep, […] and 100 nM insulin. Typical primary hepatocyte isolations yielded 12-14×10^6 cells per liver with 96%-98% cell viability (assessed by Trypan blue exclusion assay). Two hours after plating, medium was replaced with maintenance medium (DMEM with 0.2% BSA, 2 mM pyruvate, 2% Pen/strep, 0.1 mM dexamethasone and 1 nM insulin). Fatty acid oxidation assays were performed one day after isolation.
Cells were incubated overnight in culture medium containing 100 μM palmitate (C16:0) and 1 mM carnitine. In the final 2 hours of incubation, cells were pulsed with 1.7 μCi [9,10(n)-^3H]palmitic acid (GE Healthcare), and the medium was collected to analyze the released ^3H2O, formed during cellular oxidation of [^3H]palmitate. In brief, medium was TCA precipitated, supernatants were neutralized with NaOH and loaded onto ion exchange columns packed with DOWEX 1×2-400 resin (Sigma). The radioactive product was eluted with water and quantitated by liquid scintillation counting. Oxidation of [^3H]palmitate was normalized to protein content using Bio-Rad DC protein assay.
Ultimately, the up-regulation of lipid catabolism gene expression during nutrient deprivation leads to enhanced rates of fatty acid oxidation. […] To test this model, the rates of oxidation of palmitate, a saturated long chain fatty acid, were analyzed in primary MEFs and primary hepatocytes isolated from SIRT4 WT and KO mice. […]

[2] = system: mitochondrial fatty acid oxidation in primary MEFs; assay: Oxidation of [3H]palmitate in primary MEFs; conditions: SIRT4 KO and WT MEFs (both cell types)
Protocol: Mouse embryonic fibroblasts (MEFs) were isolated on embryonic day 12.5-14.5 from heterozygous females that were mated with heterozygous males. Primary MEFs were cultured in DMEM containing 10% FBS and 0.1 mM BME and were used between passages 2 and 5. Cells were incubated overnight in culture medium containing 100 μM palmitate (C16:0) and 1 mM carnitine. In the final 2 hours of incubation, cells were pulsed with 1.7 μCi [9,10(n)-^3H]palmitic acid (GE Healthcare), and the medium was collected to analyze the released ^3H2O, formed during cellular oxidation of [^3H]palmitate. In brief, medium was TCA precipitated, supernatants were neutralized with NaOH and loaded onto ion exchange columns packed with DOWEX 1×2-400 resin (Sigma). The radioactive product was eluted with water and quantitated by liquid scintillation counting. Oxidation of [^3H]palmitate was normalized to protein content using Bio-Rad DC protein assay. […] To test this model, the rates of oxidation of palmitate, a saturated long chain fatty acid, were analyzed in primary MEFs and primary hepatocytes isolated from SIRT4 WT and KO mice. The CPT1a inhibitor, etomoxir, (Baht and Saggerson, 1989) was used to specifically block mitochondrial import of fatty acids.

PPARα target gene Pdk4 = assay: Induction of PPARα target gene Pdk4 in MEFs exposed to WY14643 (quantitative RT-PCR); conditions: 50 μM WY14643
Protocol: Mouse embryonic fibroblasts (MEFs) were isolated on embryonic day 12.5-14.5 from heterozygous females that were mated with heterozygous males. Primary MEFs were cultured in DMEM containing 10% FBS and 0.1 mM BME and were used between passages 2 and 5.
RNA was isolated from frozen liver tissue of overnight fasted mice or from cells using Trizol (Invitrogen) according to the manufacturer's instructions and further purified using RNeasy columns (Qiagen). Amplification and detection of target and reference cDNA samples was performed on a Lightcycler 480 (Roche) using Lightcycler 480 Sybr Green I Mastermix (Roche). A standard curve was generated for all genes using serial dilutions of a pool prepared from all cDNA samples. mRNA levels of target genes were normalized using beta 2 microglobulin (B2m), peptidyl-prolyl isomerase (Ppia) and ribosomal protein 16 (Rps16) as reference genes.
To determine whether SIRT4 is a bona fide repressor of PPARα in a cell-autonomous manner, the induction of the PPARα target gene Pdk4 was examined in SIRT4^−/− and SIRT4′^+/+ mouse embryonic fibroblast (MEF) cell lines exposed to the PPARα agonist WY14643 (WY), as described above.

SMILES: NC(=O)C1CCCc2c1[nH]c1ccc(Cl)cc21 (stereo not drawn) [Ex 527]
- level of Fatty Acid Oxidation ([1]; SIRT4 KO hepatocytes): significantly reduced
- rate of Fatty Acid Oxidation ([1]; WT hepatocytes): did not significantly alter

SMILES: CCOC(=O)[C@@]1(CCCCCCOc2ccc(Cl)cc2)CO1 [etomoxir]
- mitochondrial fatty acid oxidation ([3H]palmitate) ([1]; both WT and SIRT4 KO hepatocytes): effectively blocked mitochondrial fatty acid oxidation
- fatty acid oxidation ([3H]palmitate) [2]: inhibited fatty acid oxidation strongly

SMILES: Cc1cccc(Nc2cc(Cl)nc(SCC(=O)O)n2)c1C [WY14643]
- stimulation of Pdk4 expression compared with WT cells (PPARα target gene Pdk4; MEFs lacking SIRT4): more than doubled
- increase in Pdk4 expression (PPARα target gene Pdk4; wild-type MEFs): 2 fold
